Data from DBAASP.
Converted amounts (≈) assume the structure as drawn.

Experiments:
Assay in all cases: ≥ marks a high value that may be exact or a test limit, other limits are often not marked, values filed in µg/mL are converted to µM
[1] = tested on: Salmonella enterica subsp. enterica serovar Enteritidis BNCC 103134
[2] = tested on: Staphylococcus aureus ATCC 25923
[3] = tested on: Escherichia coli ATCC 25922
[4] = tested on: Bacillus subtilis ATCC 6633
[5] = tested on: Pluralibacter gergoviae MTCC 3826
[6] = tested on: Proteus vulgaris MTCC 1771
[7] = tested on: Staphylococcus aureus MTCC 3160
[8] = tested on: Alkalihalobacillus alcalophilus MTCC 860
[9] = tested on: Salmonella enterica subsp. enterica serovar Typhimurium ATCC 14028
[10] = tested on: Shigella boydii MTCC 11947
[11] = tested on: Enterococcus faecalis MTCC 439
[12] = tested on: Klebsiella oxytoca MTCC 2275
[13] = tested on: Acinetobacter baumannii MTCC 9829
[14] = tested on: Staphylococcus haemolyticus MTCC 3383
[15] = tested on: Proteus mirabilis MTCC 3158
[16] = tested on: Pseudomonas aeruginosa MTCC 3542
[17] = tested on: Shigella flexneri MTCC 1457
[18] = tested on: Vibrio cholerae MTCC 3904
[19] = tested on: Escherichia coli K12 MG1655
[20] = tested on: Corynebacterium glutamicum MTCC 2679
[21] = tested on: Salmonella enterica MTCC 9844
[22] = tested on: Bordetella bronchiseptica MTCC 6837
[23] = tested on: Klebsiella pneumoniae MTCC 7407
[24] = tested on: Citrobacter koseri MTCC 1657
[25] = tested on: Stenotrophomonas maltophilia MTCC 1890
[26] = tested on: Haemophilus influenzae MTCC 621
[27] = tested on: Alcaligenes faecalis MTCC 1937
[28] = tested on: Citrobacter freundii MTCC 1658
[29] = tested on: Klebsiella aerogenes MTCC 111
[30] = tested on: Pseudomonas aeruginosa ATCC 27853
[31] = tested on: Enterococcus faecium
[32] = tested on: Staphylococcus aureus USA 300
[33] = tested on: Acinetobacter baumannii 4-MRGN
[34] = tested on: Escherichia coli AX-100-3-1
[35] = tested on: Escherichia coli 0112 EIEC26
[36] = tested on: Klebsiella pneumoniae KK3 9904
[37] = tested on: Escherichia coli AX-109-2-3
[38] = tested on: Escherichia coli 0164 EIEC6
[39] = tested on: Escherichia coli AX-054-1-3
[40] = tested on: Candida albicans ATCC 90028
[41] = tested on: Escherichia coli 0112 EIEC27
[42] = tested on: Escherichia coli 0143 EIEC7
[43] = tested on: Proteus mirabilis ATCC 25933
[44] = tested on: Escherichia coli
[45] = tested on: Enterococcus faecalis ATCC 29212
[46] = tested on: Escherichia coli AX-128-3-3
[47] = tested on: Escherichia coli O157:H7 734/94
[48] = tested on: Escherichia coli O26:H- CB6418
[49] = tested on: Escherichia coli U7794
[50] = tested on: Staphylococcus aureus
[51] = tested on: Escherichia coli 0152 EIEC1
[52] = tested on: Staphylococcus aureus NCTC 8325
[53] = tested on: Escherichia coli O26:H11 3
[54] = tested on: Staphylococcus epidermidis RP62A
[55] = tested on: Escherichia coli ATCC 35218
[56] = tested on: Escherichia coli O6:K15:H31 536
[57] = tested on: Candida albicans
[58] = tested on: Escherichia coli O157:H7 282
[59] = tested on: Escherichia coli O157:H7 30328
[60] = tested on: Escherichia coli U7103
[61] = tested on: Enterobacter cloacae NHTCC 53001
[62] = tested on: Escherichia coli O157:H7 CB6392

CC(C)[C@H](NC(=O)[C@H](C)NC(=O)[C@H](CCCN=C(N)N)NC(=O)[C@H](CC(=O)O)NC(=O)[C@@H](NC(=O)[C@H](C)N)C(C)C)C(=O)O [AVDRAV]
MIC [1]: ≥ 150 µM | MIC [2]: 100 µM (≈ 63 µg/mL) | MIC [3]: 100 µM (≈ 63 µg/mL) | MIC [4]: ≥ 150 µM

CC[C@H](C)[C@H](NC(=O)[C@H](C)NC(=O)[C@H](CCCN=C(N)N)NC(=O)[C@H](C)NC(=O)[C@H](CC(C)C)NC(=O)[C@@H](N)Cc1ccc(O)cc1)C(=O)N[C@@H](CCCN=C(N)N)C(=O)N[C@@H](CCCN=C(N)N)C(=O)N[C@H](C(=O)N[C@@H](CC(C)C)C(=O)N[C@@H](C)C(=O)N[C@@H](CCCN=C(N)N)C(=O)N[C@@H](CC(C)C)C(=O)N[C@@H](CC(C)C)C(=O)N[C@@H](CC(C)C)C(=O)O)[C@@H](C)O [YLARAIRRTLARLLL]
MIC [5]: ≥ 71.1 µM | MIC [6]: ≥ 71.1 µM | MIC [7]: 8.89 µM (≈ 16 µg/mL) | MIC [8]: 8.89 µM (≈ 16 µg/mL) | MIC [9]: 17.8 µM (≈ 32 µg/mL) | MIC [10]: 17.8 µM (≈ 32 µg/mL) | MIC [11]: ≥ 35.6 µM | MIC [12]: 8.89 µM (≈ 16 µg/mL) | MIC [13]: 8.89 µM (≈ 16 µg/mL) | MIC [14]: 8.89 µM (≈ 16 µg/mL) | MIC [15]: ≥ 71.1 µM | MIC [16]: ≥ 71.1 µM | MIC [17]: 4.45 µM (≈ 8 µg/mL) | MIC [18]: ≥ 35.6 µM | MIC [19]: 17.8 µM (≈ 32 µg/mL) | MIC [20]: 2.22 µM (≈ 4 µg/mL) | MIC [21]: 8.89 µM (≈ 16 µg/mL) | MIC [22]: 2.22 µM (≈ 4 µg/mL) | MIC [23]: 17.8 µM (≈ 32 µg/mL) | MIC [24]: 8.89 µM (≈ 16 µg/mL) | MIC [25]: 8.89 µM (≈ 16 µg/mL) | MIC [26]: 4.45 µM (≈ 8 µg/mL) | MIC [27]: 17.8 µM (≈ 32 µg/mL) | MIC [28]: 8.89 µM (≈ 16 µg/mL) | MIC [29]: 17.8 µM (≈ 32 µg/mL)

C[C@H](N)C(=O)N[C@H](C(=O)N[C@H]1CSSC[C@@H](C(=O)N[C@@H](CCCN=C(N)N)C(=O)N[C@H](C(=O)NCC(=O)N[C@@H](CCCN=C(N)N)C(=O)O)[C@@H](C)O)NC(=O)[C@H](Cc2ccc(O)cc2)NC1=O)[C@@H](C)O [ATCYCRTGR]
MIC [30]: 50 µM (≈ 51.4 µg/mL) | MIC [31]: 25 µM (≈ 25.7 µg/mL) | MIC [32]: ≥ 50 µM | MIC [33]: 25 µM (≈ 25.7 µg/mL)

CC[C@@H](C)[C@H](N=C(O)[C@H](CCCCN)N=C(O)C(CS)N=C(O)C(C)N=C(O)[C@H](N=C(O)[C@@H](Cc1ccccc1)N=C(O)CN=C(O)[C@H](CC(C)C)N=C(O)CN=C(O)[C@H](N=C(O)[C@H](CCCCN)N=C(O)CN=C(O)[C@H](CC(C)C)N=C(O)[C@H](CC(=N)O)N=C(O)[C@H](CCCCN)N=C(O)[C@H](CC(C)C)N=C(O)[C@H](N=C(O)[C@H](CO)N=C(O)C(CC(C)C)N=C(O)[C@H](CCSC)N=C(O)[C@H](N)CO)C(C)C)C(C)C)C(C)C)C(O)=N[C@H](CC(=N)O)C(O)=N[C@H](CCCCN)C(O)=N[C@H](CCC(=N)O)C(O)=N[C@H](CS)C(=O)O (some centres undefined) [SMLSVLKNLGKVGLGFVACKINKQC]
MIC [34]: 20 µM (≈ 53 µg/mL) | MIC [35]: ≥ 40 µM | MIC [36]: ≥ 40 µM | MIC [37]: 10 µM (≈ 26.5 µg/mL) | MIC [38]: 20 µM (≈ 53 µg/mL) | MIC [39]: 20 µM (≈ 53 µg/mL) | MIC [30]: 20 µM (≈ 53 µg/mL) | MIC [40]: ≥ 40 µM | MIC [41]: 20 µM (≈ 53 µg/mL) | MIC [42]: 20 µM (≈ 53 µg/mL) | MIC [43]: ≥ 100 µM | MIC [44]: 2 µM (≈ 5.3 µg/mL) | MIC [45]: 20 µM (≈ 53 µg/mL) | MIC [46]: 10 µM (≈ 26.5 µg/mL) | MIC [3]: 20 µM (≈ 53 µg/mL) | MIC [47]: 10 µM (≈ 26.5 µg/mL) | MIC [48]: 10 µM (≈ 26.5 µg/mL) | MIC [49]: 10 µM (≈ 26.5 µg/mL) | MIC [50]: 50 µM (≈ 133 µg/mL) | MIC [51]: 20 µM (≈ 53 µg/mL) | MIC [52]: 20 µM (≈ 53 µg/mL) | MIC [53]: 5 µM (≈ 13.3 µg/mL) | MIC [54]: 20 µM (≈ 53 µg/mL) | MIC [55]: 20 µM (≈ 53 µg/mL) | MIC [56]: 5 µM (≈ 13.3 µg/mL) | MIC [57]: 70 µM (≈ 186 µg/mL) | MIC [58]: 5 µM (≈ 13.3 µg/mL) | MIC [59]: 10 µM (≈ 26.5 µg/mL) | MIC [60]: 5 µM (≈ 13.3 µg/mL) | MIC [61]: 20 µM (≈ 53 µg/mL) | MIC [62]: 10 µM (≈ 26.5 µg/mL)
